Measurements published in patent US5905089A, “Use of sesquiterpene lactones for treatment of severe inflammatory disorders” (Board of Supervisors of Louisiana State University and …, priority 1998, dated 1999).
“Also recorded” adds a separate entry of the source.

Assays:
ERK-1 = assay: Kinase activity of ERK-1 in RAW 264.7 cells (in-gel kinase assay, MBP substrate); format: cell-based, murine; conditions: 3h pretreatment, LPS 1 μg/ml 30 min; FIG. 5
Experimental: (§1) Rat (Sprague-Dawley) alveolar macrophages were collected by broncho-alveolar lavage as described by Lee et al., J. Biol. Chem., vol. 267, pp. 25934-25938 (1992). The murine macrophage cell line RAW 264.7 (ATCC no. TIB-71) was cultured in Dubecco's modified Eagle's medium (DMEM) containing 10% heat-inactivated fetal bovine serum (FBS, Intergen). For the cyclooxygenase activity assay, cells were seeded in 24 well plates, and after near-confluency, cells were treated with aspirin (250 μM) for 2.5h to inactivate endogenous cyclooxygenase. […] COX activity was determined by measuring prostaglandin E2 concentrations in cells incubated with arachidonic acid (30 μM) for 10 minutes as described in Lee et al. (1992).
This assay was performed according to the method described by Kameshita et al., Anal. Biochem., vol. 183, pp. 139-143 (1989) using myelin basic protein (MBP) as a substrate.
Parthenolide suppressed LPS-stimulated tyrosine phosphorylation of various proteins in RAW 264.7 cells as assessed by antiphosphotyrosine immunoblot, depicted in FIG. 5A. This inhibition was correlated with the suppressed expression of COX-2 and IL-1α. […] Therefore, the extent of tyrosine phosphorylation of JNK-1 was assessed by the electrophoretic mobility shift of phosphorylated JNK-1 as shown in FIG. 5B. […]

IL-1α = IL-1α protein expression in LPS-stimulated alveolar macrophages (Western blot); format: cell-based, Rat (Sprague-Dawley); conditions: 16h, FIG. 3A
Experimental: as §1
(§2) The protein levels of COX-2 and GAPDH were assessed by Western blot analysis using polyclonal antibodies as described in Lee et al. (1992). Polyclonal antibodies for IL-1α and JNK-1 were purchased from Genzyme and Santa Cruz Biotech, respectively.
(§3) In FIG. 3A, alveolar macrophages were incubated with LPS and various concentrations of parthenolide for 16h. Solubilized proteins were analyzed by COX-2, IL-1α or GAPDH immunoblotting. FIG. 3A is a representative immunoblot of more than five different analyses. Data are shown for various concentrations of both parthenolide (PTN) and herbimycin A (HER). […]

COX-2 [1] = assay: Inhibition of the expression of COX-2 in LPS-stimulated macrophages (Table 1); format: cell-based
Experimental: Rat (Sprague-Dawley) alveolar macrophages were collected by broncho-alveolar lavage as described by Lee et al., J. Biol. Chem., vol.
Alveolar macrophages pretreated with aspirin were incubated with LPS (10 μg/ml) and various concentrations of parthenolide for 16h. The activity of de novo synthesized COX-2 was determined by measuring the levels of PGE2 produced from exogenous arachidonic acid. Activity of TNFα was determined by bioassay using L929 cells as described by Aggarwal et al., J. Biol. Chem., vol. […] Values in FIG. 2 are the means of triplicate samples for TNFα and duplicate samples for PGE2.

COX-2 mRNA = assay: Steady state levels of COX-2 mRNA in LPS-stimulated alveolar macrophages (RNase protection assay); format: cell-based, Rat (Sprague-Dawley); conditions: 2h, FIG. 3B
Experimental: as §1
(§4) Total cellular RNA was isolated by TRIzoL reagent (Gibco, BRL). The RNase protection assay was performed as described in Chanmugan et al. (1995).
(§5) In FIG. 3B, alveolar macrophages were incubated with LPS in the presence of various concentrations of parthenolide for 2h. Steady state levels of mRNA were determined by RNase protection assay. In FIG. 4, alveolar macrophages were incubated with LPS in presence of 1 μg/ml of parthenolide for specified time periods. The concentrations of mRNA were determined by RNase protection assay.

COX-2 [2] = assay: COX-2 protein expression in LPS-stimulated alveolar macrophages (immunoblot); format: cell-based, Rat (Sprague-Dawley); conditions: 16h, FIG. 3A
Experimental: as §1, §2, §3

IL-1β mRNA = assay: Steady state levels of IL-1β mRNA in LPS-stimulated alveolar macrophages (RNase protection assay); format: cell-based, Rat (Sprague-Dawley); conditions: FIG. 3B (2h) and FIG. 4 (parthenolide 1 μg/ml, time course)
Experimental: as §1, §4, §5

Structure (SMILES): C=C1C(=O)O[C@H]2[C@H]1CC/C(C)=C/CC[C@@]1(C)O[C@@H]21 [Compound 1, Parthenolide]
- kinase activity of ERK-1 (ERK-1): dose-dependent inhibition
- expression of IL-1α protein (IL-1α; listed as Parthenolide): inhibited
- expression of IL-1α protein (IL-1α; listed as parthenolide): dose-dependent inhibition
- IC50, inhibiting the expression of COX-2 (COX-2 [1]; IC50 determined at multiple dose levels): 0.2 µg/mL
- inhibitory activity (COX-2 expression), in words (COX-2 [1]; comparison among tested compounds): highest inhibitory activity
- steady state levels of COX-2 mRNA (COX-2 mRNA): dose-dependent inhibition; also recorded: suppression
- expression of COX-2 protein (COX-2 [2]): dose-dependent inhibition
- steady state levels of mRNA for IL-1β (IL-1β mRNA): inhibited
